Broadly, the IC50 is the concentration that inhibits the measured activity by half.

Where two headings read alike, the source gives them in different places. Where only a bound is given, the exact number is not on record here.

Consider 24 compounds from patent US10287301B2 (Achillion Pharmaceuticals, Inc., priority 2015, dated 2019).

The target in this assay is Human Factor D (Homo sapiens (Human), UniProt P00746). The experiment in a line: Human Factor D Assay. The class given is biochemical. An outline of the steps:
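Factor D (from human serum) 80 nM final + cpd, 5 min RT, 50 mM Tris/1M NaCl pH 7.5; add Z-L-Lys-SBzl 100 μM and DTNB 100 μM final. IC50 by nonlinear fit of rates vs [cpd].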

The mark [1] stands for this setting: Human Factor D, Table 3, read-out: IC50.
Setting [2] is: Table 3, Human Factor D 80 nM, substrate Z-L-Lys-SBzl, read-out: IC50 (Stars).
[3] abbreviates: Human Factor D 80 nM, substrate Z-L-Lys-SBzl, read-out: IC50.
[4] abbreviates: Human Factor D assay of Example 8, Table 2, read-out: IC50.

Chain of Human Factor D (P00746 26-253): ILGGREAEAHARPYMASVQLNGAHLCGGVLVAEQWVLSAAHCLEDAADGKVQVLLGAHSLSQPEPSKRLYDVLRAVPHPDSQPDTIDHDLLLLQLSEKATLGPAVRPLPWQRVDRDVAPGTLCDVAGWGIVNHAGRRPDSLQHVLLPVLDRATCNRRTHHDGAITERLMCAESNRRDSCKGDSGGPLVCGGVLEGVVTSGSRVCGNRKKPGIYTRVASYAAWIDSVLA

As for `CC(=O)c1ccc(Cl)c(-c2cccc(NC(=O)[C@@H]3C[C@H]4C[C@H]4N3C(=O)Cn3nc(C(N)=O)c4sc(-c5cnc6cc(C)nn6c5)nc43)c2F)c1` [Compound 716, 1-(2-((1R,3S,5R)-3-(5′-Acetyl-2′-chloro-2-fluorobiphenyl-3-ylcarbamoyl)-2-azabicyclo[3.1.0]hexan-2-yl)-2-oxoethyl)-5-(2-methylpyrazolo[1,5-a]pyrimidin-6-yl)-1H-pyrazolo[3,4-d]thiazole-3-carboxamide], the IC50 under setting [1] was below 1 µM. Take `COc1cc2c(cc1-c1cnc(C)nc1)c(C(C)=O)nn2CC(=O)N1C[C@H](F)C[C@H]1C(=O)Nc1cccc(Br)n1` [Compound 373, (2S,4R)-1-(2-(3-Acetyl-6-methoxy-5-(2-methylpyrimidin-5-yl)-1H-indazol-1-yl)acetyl)-N-(6-bromopyridin-2-yl)-4-fluoropyrrolidine-2-carboxamide]: the IC50 under setting [2] is below 1 µM. For the compound `CC(=O)c1nn(CC(=O)N2[C@@H]3C[C@@H]3C[C@H]2C(=O)Nc2cncc(Br)n2)c2ccc(-c3cnc4cc(C5CC5)nn4c3)cc12` [Compound 669, (1R,3S,5R)-2-(2-(3-Acetyl-5-(2-cyclopropylpyrazolo[1,5-a]pyrimidin-6-yl)-1H-indazol-1-yl)acetyl)-N-(6-bromopyrazin-2-yl)-2-azabicyclo[3.1.0]hexane-3-carboxamide], the IC50 under setting [1] is below 1 µM. On to `CC(=O)c1cn(CC(=O)N2C[C@H](F)C[C@H]2C(=O)Nc2cccc(-c3ccccc3Cl)c2F)c2ccc(-c3cnnc(C)c3)cc12` [Compound 121, (2S,4R)-1-(2-(3-acetyl-5-(6-methylpyridazin-4-yl)-1H-indol-1-yl)acetyl)-N-(2′-chloro-2-fluorobiphenyl-3-yl)-4-fluoropyrrolidine-2-carboxamide], for which the IC50 under setting [3] was below 1 µM. Consider `NC(=O)c1nn(CC(=O)N2C[C@H](F)C[C@H]2C(=O)Nc2nnc(-c3ccc(Cl)c(Cl)c3)s2)c2ccc(-c3ccnnc3)cc12` [Compound 69, 1-(2-((2S,4R)-2-(5-(3,4-dichlorophenyl)-1,3,4-thiadiazol-2-ylcarbamoyl)-4-fluoropyrrolidin-1-yl)-2-oxoethyl)-5-(pyridazin-4-yl)-1H-indazole-3-carboxamide], for which the IC50 under setting [3] is above 10 µM. Take `CC(=O)c1nn(CC(=O)N2[C@@H]3C[C@@H]3C[C@H]2C(=O)NC/C(F)=C(/C)c2ccccc2Cl)c2ccc(-c3cnc(C)nc3)cc12` [Compound 523]: the IC50 under setting [2] is below 1 µM.

As for `CC(=O)c1nn(CC(=O)N2C[C@H](F)C[C@H]2C(=O)NC2CCN(C(=O)c3cn[nH]c3)CC2)c2ccc(-c3cnc(C)nc3)cc12` [Compound 261, (2S,4R)-N-(1-(1H-pyrazole-4-carbonyl)piperidin-4-yl)-1-(2-(3-acetyl-5-(2-methylpyrimidin-5-yl)-1H-indazol-1-yl)acetyl)-4-fluoropyrrolidine-2-carboxamide], the IC50 lay within 1 to 10 µM.

`NC(=O)c1nn(CC(=O)N2C[C@H](F)C[C@H]2C(=O)NCc2ccncc2)c2ccc(-c3ccnnc3)cc12` [Compound 157, 1-(2-((2S,4R)-4-fluoro-2-(pyridin-4-ylmethylcarbamoyl)pyrrolidin-1-yl)-2-oxoethyl)-5-(pyridazin-4-yl)-1H-indazole-3-carboxamide]: the IC50 under setting [3] was above 10 µM. The compound `CC(=O)c1cn(CC(=O)N2C[C@H](F)C[C@H]2C(=O)Nc2cccc(-c3ccccc3Cl)c2Cl)c2ccc(-c3cnc(C)nc3)cc12` [Compound 149, (2S,4R)-1-(2-(3-acetyl-5-(2-methylpyrimidin-5-yl)-1H-indol-1-yl)acetyl)-N-(2,2′-dichlorobiphenyl-3-yl)-4-fluoropyrrolidine-2-carboxamide] yielded an IC50 below 1 µM. As for `CC(=O)c1nn(CC(=O)N2C[C@H](F)C[C@H]2C(=O)NCC(F)=C(C)C)c2ccc(-c3cnc(C)nc3)cc12` [Compound 474, (2S,4R)-1-(2-(3-acetyl-5-(2-methylpyrimidin-5-yl)-1H-indazol-1-yl)acetyl)-4-fluoro-N-(2-fluoro-3-methylbut-2-en-1-yl)pyrrolidine-2-carboxamide], the IC50 under setting [2] is below 1 µM.

`CC(=O)n1cc(CC(=O)N2C[C@H](F)C[C@H]2C(=O)Nc2cccc(-c3ccccc3Cl)c2F)c2ccc(-c3cnc(C)nc3)cc21` [Compound 710, (2S,4R)-1-(2-(1-Acetyl-6-(2-methylpyrimidin-5-yl)-1H-indol-3-yl)acetyl)-N-(2′-chloro-2-fluoro-[1,1′-biphenyl]-3-yl)-4-fluoropyrrolidine-2-carboxamide]: the half-maximal inhibitory concentration (IC50) under setting [1] is below 1 µM. On to `CC(=O)c1cn(CC(=O)N2C[C@H](F)C[C@H]2C(=O)Nc2cncc(Br)n2)c2ccc(-c3cnc4cc(C)nn4c3)cc12` [Compound 310, (2S,4R)-1-(2-(3-acetyl-5-(2-methylpyrazolo[1,5-a]pyrimidin-6-yl)-1H-indol-1-yl)acetyl)-N-(6-bromopyrazin-2-yl)-4-fluoropyrrolidine-2-carboxamide], for which the IC50 under setting [4] was below 1 µM. On the same count and under the same terms, to `CCOc1ncc(-c2ccc3c(c2)c(C(C)=O)cn3CC(=O)N2C[C@H](F)C[C@H]2C(=O)Nc2cccc(-c3ccccc3Cl)c2F)cn1` [Compound 194, (2S,4R)-1-(2-(3-acetyl-5-(2-ethoxypyrimidin-5-yl)-1H-indol-1-yl)acetyl)-N-(2′-chloro-2-fluorobiphenyl-3-yl)-4-fluoropyrrolidine-2-carboxamide] belongs below 1 µM; to `CC(=O)c1nn(CC(=O)N2C[C@H](F)C[C@H]2C(=O)Nc2cccc(-c3cc(F)ccc3S(C)(=O)=O)c2F)c2ccc(-c3cnc(C)nc3)cc12` [Compound 305, (2S,4R)-1-(2-(3-Acetyl-5-(2-methylpyrimidin-5-yl)-1H-indazol-1-yl)acetyl)-N-(2,5′-difluoro-2′-(methylsulfonyl)-[1,1′-biphenyl]-3-yl)-4-fluoropyrrolidine-2-carboxamide], below 1 µM. As to `Cc1cc(NC(=O)[C@@H]2C[C@@H](F)CN2C(=O)Cn2nc(C(N)=O)c3cc(-c4ccnnc4)ccc32)n2nc(C(F)(F)F)nc2n1` [Compound 113, 1-(2-((2S,4R)-4-fluoro-2-(5-methyl-2-(trifluoromethyl)-[1,2,4]triazolo[1,5-a]pyrimidin-7-ylcarbamoyl)pyrrolidin-1-yl)-2-oxoethyl)-5-(pyridazin-4-yl)-1H-indazole-3-carboxamide], under setting [3], the IC50 was above 10 µM. Regarding `COc1cc(Br)nc(NC(=O)[C@@H]2C[C@H]3C[C@H]3N2C(=O)Cn2nc(C(C)=O)c3cc(-c4cnc(C)nc4)ccc32)c1` [Compound 366], the IC50 under setting [2] is below 1 µM.

For `COC(=O)Cc1cccc(NC(=O)[C@@H]2C[C@@H](F)CN2C(=O)Cn2nc(C(C)=O)c3cc(-c4cnc5cc(C)nn5c4)ccc32)n1` [Compound 679, methyl 2-(6-((2S,4R)-1-(2-(3-acetyl-5-(2-methylpyrazolo[1,5-a]pyrimidin-6-yl)-1H-indazol-1-yl)acetyl)-4-fluoropyrrolidine-2-carboxamido)pyridin-2-yl)acetate], the IC50 under setting [1] is below 1 µM. On to `CC(=O)c1nn(CC(=O)N2C[C@H](O)C[C@H]2C(=O)Nc2cccc(Br)n2)c2ccc(-c3cnc(C)nc3)cc12` [Compound 231, (2S,4R)-1-(2-(3-Acetyl-5-(2-methylpyrimidin-5-yl)-1H-indazol-1-yl)acetyl)-N-(6-bromopyridin-2-yl)-4-hydroxypyrrolidine-2-carboxamide], for which the IC50 under setting [4] is below 1 µM.

Take `Cc1cc(NC(=O)[C@@H]2C[C@@H](F)CN2C(=O)Cn2nc(C(N)=O)c3cc(-c4ccnnc4)ccc32)n(-c2ccccc2F)n1` [Compound 158, 1-(2-((2S,4R)-4-fluoro-2-(1-(2-fluorophenyl)-3-methyl-1H-pyrazol-5-ylcarbamoyl)pyrrolidin-1-yl)-2-oxoethyl)-5-(pyridazin-4-yl)-1H-indazole-3-carboxamide]: the IC50 under setting [3] is above 10 µM. For `NC(=O)c1nn(CC(=O)N2C[C@H](F)C[C@H]2C(=O)Nc2cccc(Br)n2)c2ccc(-c3ccnnc3)cc12` [Compound 25, 1-(2-((2S,4R)-2-(6-bromopyridin-2-ylcarbamoyl)-4-fluoropyrrolidin-1-yl)-2-oxoethyl)-5-(pyridazin-4-yl)-1H-indazole-3-carboxamide], the IC50 under setting [3] is below 1 µM. Regarding `CC(=O)c1nn(CC(=O)N2C[C@@H](N)[C@H](F)[C@H]2C(=O)Nc2cccc(Br)n2)c2ccc(-c3cnc(C)nc3)cc12` [Compound 428, (2R,3S,4R)-1-(2-(3-Acetyl-5-(2-methylpyrimidin-5-yl)-1H-indazol-1-yl)acetyl)-4-amino-N-(6-bromopyridin-2-yl)-3-fluoropyrrolidine-2-carboxamide], under setting [2], the IC50 is above 10 µM. Take `CC(=O)c1nn(CC(=O)N2C[C@H](F)C[C@H]2C(=O)Nc2cccc(-c3cc(C(N)=O)ccc3Cl)c2F)c2ccc(-c3cnc(C)nc3)cc12` [Compound 198, (2S,4R)-1-(2-(3-acetyl-5-(2-methylpyrimidin-5-yl)-1H-indazol-1-yl)acetyl)-N-(5′-carbamoyl-2′-chloro-2-fluorobiphenyl-3-yl)-4-fluoropyrrolidine-2-carboxamide]: the IC50 under setting [4] is below 1 µM. In the case of `CC(=O)c1cn(CC(=O)N2C[C@H](F)C[C@H]2C(=O)Nc2nnc(-c3ccc(Cl)c(Cl)c3)s2)c2ccc(-c3ccnnc3)cc12` [Compound 117, (2S,4R)-1-(2-(3-acetyl-5-(pyridazin-4-yl)-1H-indol-1-yl)acetyl)-N-(5-(3,4-dichlorophenyl)-1,3,4-thiadiazol-2-yl)-4-fluoropyrrolidine-2-carboxamide], the IC50 under setting [3] was above 10 µM. In the case of `CC(=O)c1cn(CC(=O)N2C[C@H](F)C[C@H]2C(=O)NCCCc2ccccc2)c2ccc(-c3cnc(C)nc3)cc12` [Compound 444, (2S,4R)-1-(2-(3-Acetyl-5-(2-methylpyrimidin-5-yl)-1H-indol-1-yl)acetyl)-4-fluoro-N-(3-phenylpropyl)pyrrolidine-2-carboxamide], the IC50 under setting [2] is below 1 µM.
